Read-outs that look alike come from different tables or passages of the source.
Legend:
[1] = test system: L. infantum .uy (parasites isolated from two dogs in the first Leishmaniasis outbreak in Uruguay); assay: in vitro activity against L. infantum isolated from dogs in Uruguay; type: cell-based, Leishmania infantum; settings: for IC50: Leishmania infantum, read-out: IC50 ± %SD (µM) L. infantum .uy
Procedure: Compounds were dissolved in dimethylsulfoxide (DMSO).
For assessing the amastigote form of all Leishmania strains were cultured in the RPMI described above. Parasites were seeded at 1 × 10^6 cells/mL and at each time point counted at least five times to obtain a growth curve. […] Control conditions of parasites without drug (100% growth) and medium without parasites were included. After 72 h at 28 °C parasite viability was determined by the resazurin method described. Infection with L. infantum. THP-1 monocytes (ATCC®TIB-202™) were grown following ATCC recommendations and seeded at 30,000 cells/well onto 18-mm round glass coverslips in 12 wells. For stimulation cells were incubated with 100 nM of PMA for 48 h, PMA was washed and cells left with growth media for 24 h more after incubation with parasites. 30,000 parasites/well were added and left to interact. After 48 h, coverslips were washed with PBS, fixed with 95% (v/v) ethanol, and stained with Fluoroshield™ with DAPI (Sigma). Infectivity was assessed considering invasion and replication capacity counting infected cells and parasites per infected cell, respectively. Infectivity index calculation = (% of infected cells X (amastigotes per cell))/number of total counted cells. Image acquisition was made with a Leica TCS-SP5 laser scanning confocal microscope (Leica Microsystems GmbH, Wetzlar, Germany) using the LASAF v.2 software (Leica Microsystems, Wetzlar, Germany) and observed using a 356 nm laser excitation line and an emission bandwidth from 461 nm under a 20× water immersion objective. Further image analysis, including quantitation and processing of figures were made using Fiji (http://fiji.sc/).

[2] = test system: L. infantum (MHOM/BR/2002/LPC-RPV) promastigotes; assay: in vitro anti-Leishmania activity, promastigotes, resazurin; type: cell-based, Leishmania infantum
[3] = test system: L. amazonensis (promastigotes); assay: as above; type: cell-based; settings: maximum dose tested 25 µM, read-out: IC50 ± %SD (µM) L. amazonensis
[4] = test system: promastigotes L. braziliensis/ L. amazonensis; assay: in vitro anti-Leishmania activity, promastigotes (Table 1S); type: cell-based; settings: read-out: IC50 ± %SD (µM) promastigotes L. braziliensis/ L. amazonensis
[5] = test system: T. cruzi epimastigotes, Tulahuen 2 strain (genotype TcVI); assay: in vitro anti-T. cruzi activity, epimastigote growth (absorbance 600 nm); type: cell-based, Trypanosoma cruzi
Procedure: Control parasites were cultivated in 0.4% DMSO. Each concentration of the compound was evaluated in duplicate.

[6] = test system: J774.1 murine macrophages; assay: nonspecific cytotoxicity on mammalian cells, MTT; type: cell-based; settings: for IC50: Mus musculus, J774.1, 48 h, MTT, read-out: IC50 ± SD (µM) Murine Macrophages; for SI J774.1/T. cruzi: ratio IC50 murine macrophages / IC50 T. cruzi epimastigotes
[7] = Leishmania infantum, promastigotes, maximum dose tested 25 µM, read-out: IC50 ± %SD (µM) L. infantum
[8] = Trypanosoma cruzi, TULAHUEN, epimastigotes, maximum dose tested 25 µM, read-out: IC50 ± %SD (µM) T. cruzi
[9] = parasites isolated from two dogs in Uruguay, maximum dose tested 25 µM

| Compound | melting point | IC50 [1] | IC50 [2, 7] | IC50 [3] | IC50 [4] | IC50 [5, 8] | further results |
| --- | --- | --- | --- | --- | --- | --- | --- |
| C[C@]12CC[C@H]3[C@@H](CC=C4CC(O)CC[C@@]43C)[C@@H]1CC[C@@H]2C(=O)/C=C/c1cccnc1Br (some centres unmarked) [Compound 1] | 193 to 195 °C | > 25 µM | > 25 µM | > 25 µM | > 25 µM | > 25 µM | – |
| C[C@]12CC[C@H]3[C@@H](CC=C4CC(O)CC[C@@]43C)[C@@H]1CC[C@@H]2C(=O)/C=C/c1ccc(Cl)cc1 (stereo partly drawn) [Compound 3, (2E)-3-(4-Chlorophenyl)-1-((10R,13S)-2,3,4,7,8,9,10,11,12,13,14,15,16,17-tetradecahydro-3(β)-hydroxy-10,13-dimethyl-1H-cyclo-penta[a]phenanthren-17(β)-yl)prop-2-en-1-one] | 159 to 161 °C | > 25 µM | > 25 µM | > 25 µM | > 25 µM | > 25 µM | – |
| C[C@]12CC[C@H]3[C@@H](CC=C4CC(O)CC[C@@]43C)[C@@H]1CC[C@@H]2C(=O)/C=C/c1cccc(Br)c1 (some centres unmarked) [Compound 4] | 159 to 161 °C | > 25 µM | > 25 µM | > 25 µM | > 25 µM | 20 ± 5 µM | active against the strains isolated from Uruguayan dogs, in words [1]: not; activity against Leishmania infantum from Fiocruz collection, in words [2]: active |
| C[C@]12CC[C@H]3[C@@H](CC=C4CC(O)CC[C@@]43C)[C@@H]1CC[C@@H]2C(=O)/C=C/c1ccccc1 (stereo partly drawn) [Compound 5, (2E)-1-((10R,13S)-2,3,4,7,8,9,10,11,12,13,14,15,16,17-tetradecahydro-3(β)-hydroxy-10,13-dimethyl-1H-cyclopenta[a]phenan-thren-17(β)-yl)-3-phenylprop-2-en-1-one] | – | > 25 µM | > 25 µM | > 25 µM | > 25 µM | > 25 µM | – |
| C[C@]12CC[C@H]3[C@@H](CC=C4CC(O)CC[C@@]43C)[C@@H]1CC[C@@H]2C(=O)/C=C/C=C/c1ccccc1 (stereo partly drawn) [Compound 6, (2E,4E)-1-((8S,9S,10R,13S,14S,17S)-3-hydroxy-10,13-dimethyl-2,3,4,7,8,9,10,11,12,13,14,15,16,17-tetradecahydro-1H-cyclopenta[a]phenanthren-17-yl)-5-phenylpenta-2,4-dien-1-one] | 116 to 119 °C | > 25 µM | > 25 µM | > 25 µM | > 25 µM | > 25 µM | – |
| C[C@]12CC[C@H]3[C@@H](CC=C4CC(O)CC[C@@]43C)[C@@H]1CC[C@@H]2C(=O)/C=C/C=C/c1ccco1 (stereo partly drawn) [Compound 7, (2E,4E)-5-(furan-2-yl)-1-((8S,9S,10R,13S,14S,17S)-3-hydroxy-10,13-dimethyl-2,3,4,7,8,9,10,11,12,13,14,15,16,17-tetradecahydro-1H-cyclopenta[a]phenanthren-17-yl)penta-2,4-dien-1-one] | 100 to 103 °C | > 25 µM | > 25 µM | > 25 µM | > 25 µM | > 25 µM | – |
| C=CCn1c(-c2ccc(Br)cc2)csc1=NN=C(C)C1CCC2C3CC=C4CC(O)CCC4(C)C3CCC12C (stereo not drawn) [Compound 11, 1-(3β-Hydroxy-pregn-5-ene-20E-ylidene)-2-(3-allyl-4-(4-bromo-pheny)thiazol-2(3H)-ylidene)azine] | 179 to 183 °C | > 25 µM | > 25 µM | 16 ± 3 µM | 16 ± 3 µM | > 25 µM | – |
| C=CCn1c(C(=O)N2CCN(CC=Cc3ccccc3)CC2)cs/c1=N/N=C(/C)[C@@H]1CC[C@H]2[C@@H]3CC=C4CC(O)CC[C@]4(C)[C@H]3CC[C@]12C (stereo partly drawn) [Compound 12, ((Z)-3-allyl-2-((E)-(1-((8S,9S,10R,13S,14S,17R)-3-hydroxy-10,13-dimethyl-2,3,4,7,8,9,10,11,12,13,14,15,16,17-tetradecahydro-1H-cyclopenta[a]phenanthren-17-yl)ethylidene)hydrazono)-2,3-dihydrothiazol-4-yl)(4-cinnamylpiperazin-1-yl)methanone] | – | > 25 µM | > 25 µM | – | > 25 µM | > 25 µM | – |
| C/C(=N\Nc1nc(C(=O)N2CCN(C/C=C\c3ccccc3)CC2)cs1)[C@@H]1CC[C@H]2[C@@H]3CC=C4CC(O)CC[C@]4(C)[C@H]3CC[C@]12C (stereo partly drawn) [Compound 13, (2-((E)-2-(1-((8S,9S,10R,13S,14S,17R)-3-hydroxy-10,13-dimethyl-2,3,4,7,8,9,10,11,12,13,14,15,16,17-tetradecahydro-1H-cyclopenta[a]phenanthren-17-yl)ethylidene)hydrazinyl)thiazol-4-yl)(4-((Z)-3-phenylallyl)piperazin-1-yl)methanone] | – | > 25 µM | > 25 µM | – | > 25 µM | > 25 µM | – |
| C=CCn1c(C(=O)NCC(=O)OCC)cs/c1=N/N=C(/C)[C@@H]1CC[C@H]2[C@@H]3CC=C4CC(O)CC[C@]4(C)[C@H]3CC[C@]12C (stereo partly drawn) [Compound 14, Ethyl-2-((Z)-3-allyl-2-((E)-(1-((8S,9S,10R,13S,14S,17R)-3-hydroxy-10,13-dimethyl-2,3,4,7,8,9,10,11,12,13,14,15,16,17-tetradecahydro-1H-cyclopenta[a]phenanthren-17-yl)ethylidene)hydrazono)-2,3-dihydrothiazole-4-carboxamido)acetate] | – | > 25 µM | > 25 µM | – | > 25 µM | 8 ± 2 µM | IC50 [6]: 100 ± 8 µM; SI J774.1/T. cruzi [6]: 13; active against the strains isolated from Uruguayan dogs, in words [1]: not; activity against Leishmania infantum from Fiocruz collection, in words [2]: active |
| C/C(=N/N=c1\[nH]c(C(=O)O)cs1)[C@@H]1CC[C@H]2[C@@H]3CC=C4CC(O)CC[C@]4(C)[C@H]3CC[C@]12C (stereo partly drawn) [Compound 18, (Z)-2-((E)-(1-((8S,9S,10R,13S,14S,17R)-3-hydroxy-10,13-dimethyl-2,3,4,7,8,9,10,11,12,13,14,15,16,17-tetradecahydro-1H-cyclopenta[a]phenanthren-17-yl)ethylidene)hydrazono)-2,3-dihydrothiazole-4-carboxylic acid] | 281 to 283 °C | – | – | – | – | – | – |
| C=CCn1c(C(=O)O)cs/c1=N/N=C(/C)[C@@H]1CC[C@H]2[C@@H]3CC=C4CC(O)CC[C@]4(C)[C@H]3CC[C@]12C (stereo partly drawn) [Compound 19, (Z)-3-allyl-2-((E)-(1-((8S,9S,10R,13S,14S,17R)-3-hydroxy-10,13-dimethyl-2,3,4,7,8,9,10,11,12,13,14,15,16,17-tetradecahydro-1H-cyclopenta[a]phenanthren-17-yl)ethylidene)hydrazono)-2,3-dihydrothiazole-4-carboxylic acid] | 145 to 149 °C | – | – | – | – | – | – |
| C=CCn1c(-c2ccc(Cl)cc2)csc1=NN=C(C)[C@H]1CC[C@H]2[C@@H]3CC=C4C[C@@H](O)CC[C@]4(C)[C@H]3CC[C@]12C [Compound 20, 1-(3β-Hydroxy-pregn-5-ene-20E-ylidene)-2-(3-allyl-4-(4-chloro-pheny)thiazol-2(3H)-ylidene)azine] | – | – | – | – | > 25 µM | – | IC50 ([2]; Table 1S, read-out: IC50 ± %SD (µM) promastigotes L. infantum): > 25 µM; IC50 ([5]; Table 1S, read-out: IC50 ± %SD (µM) epimastigotes T. cruzi): > 25 µM |
| CCCCCCCCCCCCCCCCOP(=O)([O-])OCC[N+](C)(C)C [Miltefosine, reference compound] | – | – | 0.9 ± 0.2 µM | – | – | 8 ± 2 µM | IC50 [6]: 50 ± 7 µM; SI J774.1/L. infantum ([6]; ratio IC50 murine macrophages / IC50 L. infantum promastigotes): 56; SI J774.1/T. cruzi [6]: 6; IC50 [1, 9]: 5 ± 2 µM |
| CC1CS(=O)(=O)CCN1/N=C/c1ccc([N+](=O)[O-])o1 (centres unmarked) [Nifurtimox, reference compound] | – | – | 6 ± 2 µM | – | – | 7 ± 2 µM | IC50 [1, 9]: 10 ± 2 µM |
| CC(=O)[C@H]1CC[C@H]2[C@@H]3CC=C4C[C@@H](O)CC[C@]4(C)[C@H]3CC[C@]12C [Pregnenolone, 3β-hydroxyl-5-pregnen-20-one, reference compound] | – | – | > 25 µM | > 25 µM | – | > 25 µM | IC50 [1, 9]: > 25 µM |

Reference: publication PMC6832524, “A Nature-Inspired Design Yields a New Class of Steroids Against Trypanosomatids” (Molecules, 2019)
